“And” between values parts separate entries of the source, which are not always exact repeats. Identical values can stand only once. Counter-ions that a name gives are not always drawn.
How the values were obtained:
[1] = Vesicle radius by dynamic light scattering (DLS); assay type: physicochemical; conditions: for Vesicle Radius after SEC by DLS CTAT-Rich V^+: V^+ vesicles with 1 mM solute; for Vesicle Radius after SEC by DLS SDBS-Rich V^−: V^− vesicles with 1 mM solute
Method: Vesicle sizes in solution were monitored using dynamic light scattering (DLS) on a Photocor-FC instrument. The light source was a 5 mW laser at 633 nm and the scattering angle was 90°. A logarithmic correlator was used to obtain the autocorrelation function, which was analyzed by the method of cumulants to yield a diffusion coefficient. The apparent hydrodynamic size of the vesicles was obtained from the diffusion coefficient through the Stokes-Einstein relationship. The intensity (total counts) of the signal was also recorded for each sample.
(§1) The apparent encapsulation efficiencies of the two vesicle preparations, V^+ and V^−, were also evaluated for the other solute molecules shown in FIG. 9. A solute concentration of 1 mM was used in all cases. Lucifer yellow (LY) is dianionic in water and Sulforhodamine 101 (SR101) is monanionic. […] Doxorubicin hydrochloride (Dox) is a cationic drug with a pKa of ˜7.619 that has been used to treat a variety of cancers. […] In each case, vesicles were prepared using aqueous solutions of the solute at a concentration of 1 mM. The solute/CTAT/SDBS mixtures were stirred for 30-60 min, or overnight, and the resulting vesicle solutions were allowed to equilibrate in the dark at room temperature for at least 48 h. Thereafter, the samples were passed through a 25 mm syringe filter (0.45 μm mesh) to remove any impurities. Dynamic light scattering was conducted to confirm vesicle formation and to measure the average vesicle size.
A low solute concentration, e.g., 1 mM, was used in the experiments to ensure the stability of our vesicle formulations. […] Even at a concentration of 1 mM, some solutes may have a large effect on vesicle morphology. To study these aspects in some detail, dynamic light scattering (DLS) and small angle neutron scattering (SANS) were used. DLS was performed on purified vesicles obtained from the SEC column (after removing all the free solute); the sizes of solute-containing vesicles were compared with the sizes of neat vesicles (no solute). DLS gave radii of 74 nm for neat V^+ vesicles and 70 nm for neat V^− vesicles. Passing these neat vesicles through an SEC column changed their sizes slightly and the new radii were 81 nm for V^+ and 98 nm for V^− vesicles. […] However, while 1 mM of the anionic solute Lucifer yellow (LY) had no effect on V^− vesicles, it induced a 2.5 fold increase in the radii of V^+ vesicles.

[2] = Dye adsorption: dye added to preformed vesicles, then SEC; assay type: physicochemical
[3] = assay type: physicochemical
Method: A more general procedure based on SEC that can be applied to a wide range of solutes, including non-self-quenching and non-fluorescent ones was also used. The initial vesicle-solute mixture was purified using SEC (as described above) to remove the free, unencapsulated solute. The sample was then checked for release of solute from the vesicles over the course of several weeks. For this purpose, small-scale separations using quick-spin columns pre-packed with Sephadex G50 (fine) were performed (column from Roche, additional beads for repacking the columns from Sigma). On a specific day, a 100 μL aliquot was run through a quick-spin column by centrifugation (3000 rpm, 15 s), and the eluted fraction was evaluated using UV-vis spectroscopy. Any solute that had been released from the vesicles was retained by the quick-spin column. Therefore, the amount of solute eluted by the column corresponded to the solute still encapsulated by the vesicles. The UV-vis absorption value for the eluted sample was divided by the corresponding value obtained on day zero (immediately after SEC) to yield a fraction of solute that remains encapsulated in the vesicles. This method directly yielded the apparent encapsulation, ε, as a function of time. […]

[4] = Apparent encapsulation efficiency (ε) of solutes in vesicles by SEC and UV-vis; assay type: physicochemical; conditions: 1 wt% surfactant, 1 mM solute; for ε (Apparent Encapsulation Efficiency) SDBS-Rich V^−: V^− vesicles 3:7 w/w CTAT:SDBS; for ε (Apparent Encapsulation Efficiency) CTAT-Rich V^+: V^+ vesicles 7:3 w/w CTAT:SDBS
Method: For the determination of encapsulation efficiencies, vesicles were prepared using aqueous solutions containing 1.0 mM carboxyfluorescein (CF) dye. The formation of CTAT-rich vesicles (7:3 CTAT to SDBS w/w) appeared to be inhibited at CF concentrations of 5 mM or greater. High concentrations of CF (and similarly, other solutes) tended to disrupt the vesicles and lead to precipitation over time. Vesicle stability appeared to be unaffected when the solute concentration is kept below 5 mM, and at these concentrations solute encapsulation does occur. For CF, a pH ˜9 was required in order to fully dissolve the dye, and the stock solutions were adjusted accordingly. The CF/CTAT/SDBS solutions were stirred for 15-30 min and the resulting vesicle solutions were allowed to equilibrate in the dark at room temperature for at least 48 h. Dynamic light scattering (DLS) was then used to confirm vesicle formation. SDBS-rich vesicles (e.g., 3:7 CTAT to SDBS w/w) could be prepared with higher CF concentrations (up to ca. 100 mM); however CF encapsulation in these vesicles was reduced relative to that of CTAT-rich vesicles and in many cases CF encapsulation by SDBS-rich vesicles (i.e., the formation of distinct bands in the chromatography column, see below) was not achieved.
as §1
To measure the apparent encapsulation efficiency ε, size exclusion chromatography (SEC) was used to separate the free solute from that encapsulated by the vesicles. A 2×25 cm column packed with Sephadex G50 resin (medium mesh, Amersham Biosciences) or a 1.3 cm×21 cm SEC column packed with Sephadex G50 resin (medium mesh, from Amersham Biosciences) was used. An aliquot of the vesicle-solute sample was run through the SEC column.
During elution, vesicle solutions divided into bands that were visible with the naked eye or by UV lamp, e.g., in the case of CF dye containing vesicles, two clear bands, the leading band containing the dye-bearing vesicles and the second band containing the free dye. During elution, fractions were collected and analyzed, and a series of such fractions for a typical experiment is shown in FIG. 6 (the solute in FIG. 6 is CF). The band containing the vesicles was collected for further studies of vesicle leakage, as described below. Dynamic light scattering was used to determine which of the eluted fractions contained vesicles, and the vesicles were consistently found to elute at 5.5 ml, total elution volume.
The amount of solute in each fraction was determined using UV-vis spectroscopy (Hitachi U-3010 Spectrometer). The encapsulation efficiency (ε) value is defined as the amount of encapsulated solute relative to the total initial amount of solute:
V designates volume, A designates absorbance, i denotes initial values taken from the original preparation, and f denotes values taken from the fractions eluted from the SEC column shown by dynamic light scattering to contain vesicles. Thus, the value of ε gives percentage of dye that is captured by the vesicles during their preparation. […]

[5] = as above; assay type: physicochemical; conditions: inner water pool only
[6] = Long-term CF release from vesicles by self-quenching fluorescence, R(t); assay type: physicochemical
Method: The self-quenching behavior of carboxyfluorescein (CF) was used to monitor dye efflux from vesicles. CF is a widely used probe for vesicle encapsulation due to its ability to undergo efficient self-quenching of fluorescence at millimolar concentrations. For example, when 60 mM CF is entrapped in vesicles, its fluorescence intensity is reduced by 60-80%, but as the dye is released from the vesicle, and thus diluted by the surrounding buffer, its fluorescence intensity increases.
Samples were checked on a specific day by placing a fixed aliquot (1.5 mL) into a 1 cm cuvette and monitoring its emission at 520 nm while exciting at 490 nm using a Spex Fluorolog-3 spectrometer. The intensity was monitored for several minutes to establish the baseline fluorescence intensity, which contains a contribution from both free and encapsulated dyes. After the baseline was established, 100 uL of 10% (w/w) aqueous Triton X-100 was added to disrupt the vesicles. Vesicle disruption results in the release of all dye molecules into solution and a concomitant increase in fluorescence. For these experiments, a substantial volume of sample was prepared on the first day and run on the SEC column to remove free dye. […] The traces show the emission intensity before and after the addition of Triton X-100, a nonionic detergent that disrupts both lipid and surfactant vesicles. […] As expected, the largest jump occurs for the freshly prepared vesicle solution where all the dye is encapsulated in the vesicles. We compare the magnitude of the jump on Day x with the highest jump (Day 0) and thereby obtain the fraction of the dye released on day x, R(t=x), the calculation of which is described below. […]
To monitor long-term leakage rates, the fraction of dye released as a function of time, R(t), was calculated for a given day. This quantity measures the fraction of encapsulation on Day x relative to the initial value on Day 0:
where F(initial) and F(final) are the fluorescence intensities before and after adding the Triton X-100. […]

[7] = Separation of oppositely charged solute mixtures with catanionic vesicles by SEC; assay type: physicochemical; conditions: for Dye carried through SEC column within the V^+ vesicle band / Dye in the V^− vesicle band emerging from SEC column: equimolar CF and R6G, total dye 0.5 mM; for Dye carried through SEC column within the V^+ vesicle band: V^+ vesicles; for Dye in the V^− vesicle band emerging from SEC column: V^− vesicles; for Separation of LY and Dox by catanionic vesicles in SEC: total compound concentration 1 mM
Method: Catanionic vesicles were prepared with equimolar mixtures of two solutes, the cationic organic dye rhodamine 6G (R6G) and the anionic dye carboxyfluorescein (CF). The total solute concentration was maintained at either 0.5 or 1.0 mM, and experiments were done with both positively charged vesicles (V^+) (excess of cationic CTAT) and negatively charged vesicles (V^−) (excess of anionic SDBS) formed from cetyltrimethylammonium tosylate (CTAT) and sodium dodecylbenzenesulfonate (SDBS).
Experiments with these solute mixtures were performed and analyzed by performing size exclusion chromatography on the sample and measuring the dye concentration of each fraction to obtain an apparent encapsulation value, ε, for each dye (see below). The dye concentration in each fraction was determined by UV-vis spectroscopy. To account for the overlapping of the dye spectra, we subtracted a scaled spectrum of pure R6G from the total spectrum in order to find the peak absorbance of CF.

[8] = cited from earlier work

| Compound | Effect of solute on V^+ vesicle radii ([1]; 1 mM solute) | Effect of solute on V^− vesicle radii ([1]; 1 mM solute) | Vesicle Radius after SEC by DLS CTAT-Rich V^+ [1] | Vesicle Radius after SEC by DLS SDBS-Rich V^− [1] | Electrostatic adsorption contribution to overall apparent encapsulation efficiency ε ([2]; CF added to pre-formed V^+ vesicles vs vesicles formed with CF) | Half life in the vesicles [3] | Retention of solute relative to liposomes ([3]; catanionic vesicles vs EYPC liposomes) | ε (Apparent Encapsulation Efficiency) SDBS-Rich V^− [4] | Actual encapsulation efficiency for dye in the V^+ water pool [5] | Release rate slower than from EYPC vesicles ([6]; CF from V^+ vesicles vs EYPC vesicles) | Period over which CF dye is released ([6]; EYPC vesicles) | Release of CF ([6]; V^+ vesicles, after 27 days) | Dye carried through SEC column within the V^+ vesicle band [7] | Dye in the V^− vesicle band emerging from SEC column [7] | ε (Apparent Encapsulation Efficiency) CTAT-Rich V^+ [4] | ε (Apparent Encapsulation Efficiency) SDBS-Rich V^− ([4]; hydrochloride) | Separation of LY and Dox by catanionic vesicles in SEC [7] | pKa [8] | ε when dye added to pre-made vesicles, as share of Table 1 value ([2]; R6G added to pre-made V^− vesicles) | Increase in the radii of V^+ vesicles ([1]; 1 mM solute, vs neat vesicles) |
| --- | --- | --- | --- | --- | --- | --- | --- | --- | --- | --- | --- | --- | --- | --- | --- | --- | --- | --- | --- | --- |
| 5(6)-carboxyfluorescein [CF] | essentially unchanged | essentially unchanged | 87 ± 5 nm | 91 ± 8 nm | about 75% | 114 days | 40-60 times | 1.0 ± 0.4% | ca. 5% | at least 40 times | about 5 days | approximately 20% | 31% | negligible |  |  |  |  |  |  |
| COc1cccc2c1C(=O)c1c(O)c3c(c(O)c1C2=O)C[C@@](O)(C(=O)CO)C[C@@H]3O[C@H]1C[C@H](N)[C@H](O)[C@H](C)O1 [Dox, doxorubicin hydrochloride] |  |  | 143 ± 32 nm | 93 ± 4 nm |  |  |  |  |  |  |  |  |  |  | 0% | 55% | Very efficient separation | ~7.619 |  |  |
| CCN=c1cc2oc3cc(NCC)c(C)cc3c(-c3ccccc3C(=O)OCC)c-2cc1C.Cl [R6G, rhodamine 6G] |  |  | 156 ± 24 nm | 109 ± 16 nm |  |  |  | 72% and 72 ± 3% |  |  |  |  | no detectable | 88% | 0.07 ± 0.1% |  |  |  | ca. 85% |  |
| O=S(=O)([O-])c1cc(S(=O)(=O)O)ccc1C1=c2cc3c4c(c2Oc2c1cc1c5c2CCCN5CCC1)CCC[N+]=4CCC3 [SR 101, sulforhodamine 101] |  |  | 122 ± 38 nm | 84 ± 7 nm |  |  |  | 8.2% |  |  |  |  |  |  | 32.8% |  |  |  |  |  |
| Lucifer yellow [LY] |  | no effect | 208 ± 18 nm | 96 ± 3 nm |  |  |  | 4% |  |  |  |  |  |  | 40 ± 20% |  | Very efficient separation |  |  | 2.5 fold |
